Data set [1] deals with T1, PPARγ (Mus musculus, UniProt P37238).
T1 construct: host or cells: mouse macrophages
T1 sequence (P37238 1-505): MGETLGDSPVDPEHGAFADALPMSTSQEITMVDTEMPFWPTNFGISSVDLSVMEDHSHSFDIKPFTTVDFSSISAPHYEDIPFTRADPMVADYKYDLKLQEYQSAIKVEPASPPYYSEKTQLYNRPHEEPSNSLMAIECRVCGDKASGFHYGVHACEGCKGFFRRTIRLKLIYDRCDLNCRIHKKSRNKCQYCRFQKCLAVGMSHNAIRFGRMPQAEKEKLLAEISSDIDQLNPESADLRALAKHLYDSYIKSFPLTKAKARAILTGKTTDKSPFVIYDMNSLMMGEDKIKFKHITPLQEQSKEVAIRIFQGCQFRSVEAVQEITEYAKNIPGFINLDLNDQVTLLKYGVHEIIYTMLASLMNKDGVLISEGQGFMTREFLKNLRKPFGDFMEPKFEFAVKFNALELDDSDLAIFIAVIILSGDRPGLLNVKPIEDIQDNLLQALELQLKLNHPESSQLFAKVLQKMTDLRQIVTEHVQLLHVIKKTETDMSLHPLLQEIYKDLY
As to conditions: cited from earlier work; for PPARγ binding and activation: may act as allosteric effectors.

The target of data set [2] is T2, PPARγ (Homo sapiens, UniProt P37231).
T2 sequence (P37231 1-505): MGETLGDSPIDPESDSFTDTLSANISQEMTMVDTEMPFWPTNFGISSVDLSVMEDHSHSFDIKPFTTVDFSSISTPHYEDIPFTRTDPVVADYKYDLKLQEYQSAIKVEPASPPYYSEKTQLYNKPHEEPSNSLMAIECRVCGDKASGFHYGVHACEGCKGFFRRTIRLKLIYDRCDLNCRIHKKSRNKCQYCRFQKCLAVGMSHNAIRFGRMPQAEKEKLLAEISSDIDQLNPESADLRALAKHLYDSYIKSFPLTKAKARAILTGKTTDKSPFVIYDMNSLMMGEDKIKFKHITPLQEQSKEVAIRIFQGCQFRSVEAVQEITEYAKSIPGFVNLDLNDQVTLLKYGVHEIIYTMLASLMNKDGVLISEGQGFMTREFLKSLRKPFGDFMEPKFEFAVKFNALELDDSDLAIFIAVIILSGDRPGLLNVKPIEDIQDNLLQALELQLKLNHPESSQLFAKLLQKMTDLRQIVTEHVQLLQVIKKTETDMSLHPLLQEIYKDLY
The experiment in a line: Membrane-bound PPARγ binding assay. The text has this:
The dose-related increase of PPRE reporter activity by genistein was also observed when a luciferase reporter construct containing three copies of a consensus PPRE inserted in front of a minimal thymidine kinase promoter. To determine whether genistein activates PPARγ through direct interaction with this receptor, we performed membrane-bound PPARγ binding assay.

Data set [3] concerns 3T3-L1. As to conditions: cited from earlier work; for proliferation of preadipocytes: time- and dose-dependent.
Data set [4] concerns human bone marrow cell cultures. The experiment in a line: Osteogenesis in human bone marrow cell cultures. It is filed as cell-based. As for the experimental part:
(§1) Similar stimulatory and inhibitory effects of genistein on bone formation were also observed in mouse and human bone marrow cell cultures. Like in KS483 cells, the stimulatory effects on ALP activity and Ca deposition in mouse bone marrow cultures occurred at concentrations between 0.1 μM and 10 μM, whereas the inhibitory effects were also found at the concentrations of 25 μM or higher. In human bone marrow cell cultures, the stimulatory effects was found at 0.001 μM, whereas the inhibitory effects were observed above 4 μM.

The subject of data set [5] is human bone marrow cultures. Briefly: Adipogenesis (adipocyte numbers) in human bone marrow cultures. It is filed as cell-based.
For data set [6], the system named is ovariectomised, lactating rats. As to conditions: cited from earlier work.
In data set [7] the test system is mouse bone marrow cell cultures. The experiment in a line: Osteogenesis in mouse bone marrow cell cultures. It is filed as cell-based. The method, then: as §1
Data set [8] concerns the target T2, PPARγ. The experiment in a line: In vitro model, summary: activation of and binding to PPARγ. As to conditions: triggers adipogenesis. It is filed as cell-based. The text has this:
(§2) Despite the large number of prior art publications that deal with the favourable effect of genistein on e.g. osteogenesis and/or adipogenesis, it has not been recognized before that it is crucial to avoid that plasma genistein levels reach a level that is sufficient to activate the PPARγ receptor in order to prevent inhibition of osteoblast activity and differentiation and to prevent stimulation of adipogenesis. As a matter of fact some of these publications recommend genistein dosages and plasma levels that according to the inventors' findings will produce significant adverse results. The inventors have developed a highly reproducible and sensitive in vitro model that has allowed them to discover that the effect of genistein components on e.g. osteogenesis and adipogenesis is biphasic, i.e. at plasma genistein levels above about 0.02 μM estrogen receptors (ER's) may be activated, leading to stimulation of osteogenesis, whilst at plasma genistein levels above about 4 μM the PPARγ receptor is activated, which triggers adipogenesis. By maintaining the plasma genistein levels at a level where the estrogen receptors are continuously activated, whilst at the same time avoiding activation of the PPARγ receptor, disorders such as osteoporosis and obesity may effectively be treated. […] These effects are mediated through the ER's.
At the same time the adipogenesis increases. […]

For data set [9], the system named is KS483 cells. The experiment in a line: Adipogenesis (adipocyte numbers) in KS483 cells. It is filed as cell-based. As to conditions: KS483 cells treated from day 1 onwards. The text has this:
(§3) These inhibitory and stimulatory effects of genistein on adipogenesis in KS483 cells were further confirmed by mRNA expression of the adipocyte markers, PPARγ2, adipocyte protein 2 (aP2) and lipoprotein lipase (LPL). Adipogenic responses of mouse bone marrow cells to different doses of genistein were obtained.

Data set [10] deals with estrogen receptors (ER's). Briefly: In vitro model, summary: activation of estrogen receptors. It is filed as cell-based. As to conditions: leads to stimulation of osteogenesis.
For data set [11], the system named is 3T3-L1 cels. As to conditions: cited from earlier work.
Data set [12] deals with estrogenic receptor responsive element (ERE). Briefly: ERE luciferase reporter in transiently transfected KS483 cells. Format: cell-based. As for the experimental part:
KS483 cell were transiently transfected with a luciferase reporter construct containing two copies of a consensus estrogenic receptor responsive element (ERE) inserted in front of TATA or five copies of a consensus PPARy responsive element (PPRE) inserted in front of TATA or empty TATA-luciferase reporter along with expression plasmids encoding human PPARγ2. […] Similarly, a dose-related increase of PPRE reporter activity was found in the range of 1 μM to 50 μM.
It is also possible that an activation of PPARγ down regulated transcriptional activity of estrogen, i.e. there is cross-talk between ER's and PPARγ. […] Ligand concentration thus plays a crucial role in determining the degree of activation of ER's and PPARγ.
(In general: A reporter such as luciferase makes a cellular process visible.)

Data set [13] has as its system KS 483 cells. The experiment in a line: Osteogenesis in KS 483 cells (ALP activity, nodule formation, Ca deposition, osteoblastic marker mRNA). It is filed as cell-based. As for the experimental part:
KS 483 cells were continuously treated for 21 days with various concentrations of genistein from day one onwards. Genistein had clear biphasic effects on osteogenesis. The stimulatory effects of genistein on alkaline phosphatase (ALP) activity, nodule formation and Ca deposition were found in the range of 0.1 μM to 10 μM, with a maximal effect at 1 μM. In contrast, the inhibitory effects of genistein on ALP activity, nodule formation and Ca deposition occurred at concentrations of 25 μM or higher.

The conditions of data set [14]: cited from earlier work.
The conditions of data set [15]: dose 8 mg/kg body weight; cited from earlier work.
For data set [16], the system named is mouse bone marrow cells. Briefly: Adipogenesis (adipocyte numbers) in mouse bone marrow cultures. Format: cell-based.
From the text: as §3

Data set [17] has as its system osteogenesis and adipogenesis. The experiment in a line: In vitro model, summary: osteogenesis stimulated and adipogenesis inhibited. It is filed as cell-based. As to conditions: low plasma concentrations, ER mediated.
From the text: as §2

Data set [18] addresses T3, human PPARγ2 (Homo sapiens, UniProt P37231).
T3 construct: expressed in transfected cells; host or cells: KS483 cells
T3 sequence (P37231 1-505): T2 sequence (P37231 1-505)
The experiment in a line: PPRE luciferase reporter in KS483 cells with human PPARγ2 expression plasmid. Format: cell-based. The text has this:
KS483 cell were transiently transfected with a luciferase reporter construct containing two copies of a consensus estrogenic receptor responsive element (ERE) inserted in front of TATA or five copies of a consensus PPARy responsive element (PPRE) inserted in front of TATA or empty TATA-luciferase reporter along with expression plasmids encoding human PPARγ2.
To determine whether genistein activates PPARγ through direct interaction with this receptor, we performed membrane-bound PPARγ binding assay.

For data set [19], the system named is p42 and p44 MAPK. Briefly: Western blot of p42 and p44 MAPK activity. It is filed as cell-based. The text has this: It has been shown that phosphorylation of PPARγ by p42 and p44 mitogen activated protein kinase (MAPK) regulates PPARγ activity. We therefore performed western blot to test whether genistein at the micromolar concentrations inhibit p42 and p44 MAPK activity. […] An inhibition of p42 and p44 vMAPK activity is likely to potentiate PPARγ activity.
On the technique in general: Immunoblotting shows a protein as a band on a membrane.

The mark [20] stands for this setting: 61.7 μmole genistein per kg bodyweight per day.

Here are results for five compounds from patent publication US20050090457A1, “Method of treating mammals with genistein and/or genistein analogues” (N.V. NUTRICIA, priority 2002, published 2005).

The structures appear in SMILES notation. Read-outs that look alike come from different tables or passages of the source. Bounds are passed on as bounds.

For `O=c1c(O)c(-c2ccc(O)cc2)oc2cc(O)cc(O)c12` [kaempferol], in data set [1], the “PPARγ binding and activation” value was “able to bind and activate PPARγ”.

`O=c1cc(-c2ccc(O)cc2)oc2cc(O)cc(O)c12` [apigenin]: in data set [1], the “PPARγ binding and activation” value was “able to bind and activate PPARγ”.

As usually defined, the Ki is a measure of affinity in units of concentration, obtained from inhibition or displacement. Higher therefore signals a looser hold on the target. `CCCc1c(OCCCCc2nnn[nH]2)ccc(C(C)=O)c1O` [LY 171883, reference compound] returned a Ki in data set [2] of 4.2 µM.

In the case of `O=C1C[C@@H](c2ccc(O)cc2)Oc2cc(O)cc(O)c21` [naringenin, reference compound], in data set [3], the proliferation of preadipocytes entry was “inhibit proliferation of preadipocytes”.

Take `O=c1c(-c2ccc(O)cc2)coc2cc(O)cc(O)c12` [genistein]: the “concentration at which stimulatory effects on bone formation were found” value in data set [4] was 0.001 µM. Moreover, in [4], the “concentrations at which inhibitory effects on bone formation were observed” value is “above 4 μM”. The “concentration with an increase in adipocyte numbers” value in data set [5] came out at 10 µM. Besides, the “effect on uterine weight” value in data set [6] (setting [20]) is “negative impact on uterine weight”. For the same compound, the “response on retention of bone mass” value in data set [6] (setting [20]) is given as “lower response”. For the same compound, the “dosages with positive effect on the retention of bone mass” value in data set [6] (ovariectomised, lactating rats) was 6.2-19.7 μmole genistein per kg bodyweight per day. In addition, the “concentrations of inhibitory effects on bone formation” value in data set [7] is at least 25 µM. The affinity in data set [2], expressed as Ki, was 5.7 µM. For the same compound, the “genistein level above which the PPARγ receptor is bound/activated” value in data set [8] is reported as “above 4 μM”. In addition, the PPAR-γ expression entry in data set [3] (added to 2-day postconfluent preadipocytes at the induction of differentiation) is listed as “inhibit PPAR-γ expression”. The proliferation of preadipocytes result in data set [3] is reported as “inhibit proliferation of preadipocytes”. Further, the “concentrations of increased adipocyte numbers” value in data set [9] was at least 10 µM. Further, in [10], the “plasma genistein level above which estrogen receptors may be activated” value is “above 0.02 μM”. Besides, the D/M induced adipogenesis result in data set [11] (3.3 μM, lowest concentration tested) was “weak inhibitory influence”; in data set [11] (100 μM) it was “effectively abolishes adipogenic conversion”; in data set [11] (10 and 33 μM), “marked inhibition of adipogenesis”. For the same compound, the “concentration at which ERE reporter activity reaches the maximal level” value in [12] (KS483 cells) stood at 50 µM. For the same compound, in [12] (KS483 cells exposed to the same concentrations of genistein), the “effect of co-transfection of PPARγ2 on ERE reporter activity” value is on record as “decreased ERE reporter activity”. The “concentration of maximal stimulatory effect on ALP activity, nodule formation and Ca deposition” value in data set [13] (KS 483 cells, 21 days) was found to be 1 µM. Further, in [13] (KS 483 cells, 21 days), the “concentrations of inhibitory effects on ALP activity, nodule formation and Ca deposition” value is at least 25 µM. The “bone formation by mRNA expression of Cbfal, osteocalcin and PTH/PTHrP receptor” value in [13] (genistein 1 μM) is reported as “increase of bone formation”; in data set [13] (genistein 25 μM), “decrease of bone formation”. The “plasma concentration of genistein” value is around 5 µM in data set [14] (Japanese who consume high amounts of soy products) and “less than 20 nM” in data set [14] (humans consuming diets without soy). The serum genistein in [15] was around 10 µM. For the same compound, the “concentrations with an increase in adipocyte numbers” value in data set [16] was “above 4 μM”. Also, in data set [17], the “plasma concentrations at which osteogenesis is stimulated and adipogenesis is inhibited” value was in the range of 0.02 to 3 µM. In addition, the “concentration at which PPRE reporter activity reaches the maximal level” value in data set [18] (KS483 cells) stood at 50 µM. In addition, the “effect of co-transfection of ERα on PPRE reporter activity” value in data set [18] (KS483 cells exposed to genistein) is reported as “down regulation of PPRE reporter activity”. For the same compound, the PPARγ activity entry in data set [1] (concentration of 10 μM) is recorded as “not stimulate PPARγ activity”. The “concentration range of inhibition of p42 and p44 MAPK activity” value in data set [19] was “micromolar range”.
